Test results: ChEMBL document CHEMBL5131471, “Design, synthesis and mechanism studies of novel dual PARP1/BRD4 inhibitors against pancreatic cancer” (Eur J Med Chem, 2022)
The source made the active and inactive calls. The rule behind the calls is not given here.

What was measured:
[1] = Toxicity in nude mouse xenografted with human SW1990 cells assessed as spleen damage at 15 mg/kg, ip administered for 28 days by H and E staining based fluorescence microscopic analysis; format: organism-based; conditions: in vivo, 672 h, time 28 day
[2] = Toxicity in nude mouse xenografted with human SW1990 cells assessed as kidney damage at 15 mg/kg, ip administered for 28 days in presence of 45 mg/kg Olaparib by H and E staining based fluorescence microscopic analysis; format: organism-based; conditions: in vivo, 672 h, time 28 day
SW1990 [3] = test: Induction of apoptosis in human SW1990 cells assessed as late apoptotic cells at 4 uM measured after 4 days by Annexin V-FITC and propidium iodide staining based flow cytometry (reference value: 7.23%); format: functional; conditions: time 4 day
SW1990 [4] = test: Effect on CDC25A gene expression in human SW1990 cells at 4 uM by Q-PCR analysis; format: functional, cell-based
SW1990 [5] = test: Effect on CCNB1 gene expression in human SW1990 cells at 4 uM by Q-PCR analysis; format: functional, cell-based
SW1990 [6] = test: Effect on BRCA2 gene expression in human SW1990 cells at 4 uM by Q-PCR analysis; format: functional, cell-based
SW1990 [7] = test: Effect on c-Myc gene expression in human SW1990 cells at 1 uM in presence of Olaparib by Q-PCR analysis; format: functional, cell-based
SW1990 [8] = test: Effect on ALDH1A1 gene expression in human SW1990 cells at 1 uM in presence of Olaparib by Q-PCR analysis; format: functional, cell-based
SW1990 [9] = test: Effect on MDC1 gene expression in human SW1990 cells at 1 uM in presence of Olaparib by Q-PCR analysis; format: functional, cell-based
SW1990 [10] = test: Downregulation of Ki67 expression in human SW1990 cells at 15 mg/kg, ip in presence of 45 mg/kg, ip Olaparib measured after 28 days by immuno histochemical staining based fluorescence microscopic analysis; format: functional, organism-based; conditions: time 28.0 day
[11] = Toxicity in nude mouse xenografted with human SW1990 cells assessed as spleen damage at 45 mg/kg, ip administered for 28 days by H and E staining based fluorescence microscopic analysis; format: organism-based; conditions: in vivo, 672 h, time 28 day
[12] = Toxicity in nude mouse xenografted with human SW1990 cells assessed as heart damage at 45 mg/kg, ip administered for 28 days by H and E staining based fluorescence microscopic analysis; format: organism-based; conditions: in vivo, 672 h, time 28 day
Mus musculus [13] = test: Upregulation of E2F2 expression in nude mouse xenografted with human SW1990 cells at 45 mg/kg, ip measured after 4 days by Q-PCR analysis; format: functional, organism-based; conditions: time 4.0 day
Mus musculus [14] = test: Upregulation of E2F2 expression in nude mouse xenografted with human SW1990 cells at 45 mg/kg, ip measured after 4 days by Western blot analysis; format: functional, organism-based; conditions: time 4.0 day
SW1990 [15] = test: Effect on c-Myc gene expression in human SW1990 cells at 6 uM by Q-PCR analysis; format: functional, cell-based
SW1990 [16] = test: Effect on CCND1 gene expression in human SW1990 cells at 6 uM by Q-PCR analysis; format: functional, cell-based
SW1990 [17] = test: Upregulation of BRCA1 expression in human SW1990 cells at 6 uM measured after 4 days by Western blot analysis; format: functional, cell-based; conditions: time 4.0 day
SW1990 [18] = test: Upregulation of BRCA2 expression in human SW1990 cells at 6 uM measured after 4 days by Western blot analysis; format: functional, cell-based; conditions: time 4.0 day
Mus musculus [19] = test: Upregulation of […] expression in nude mouse xenografted with human SW1990 cells at 45 mg/kg, ip measured after 28 days by DAPI staining based laser confocal microscopic analysis; format: functional, organism-based; conditions: time 28.0 day
Mus musculus [20] = test: Upregulation of BRD4 expression in nude mouse xenografted with human SW1990 cells at 45 mg/kg, ip measured after 28 days by DAPI staining based laser confocal microscopic analysis; format: functional, organism-based; conditions: time 28.0 day
SW1990 [21] = test: Upregulation of BRD4 expression in human SW1990 cells at 6 uM measured after 4 days by Western blot analysis; format: functional, cell-based; conditions: time 4.0 day
[22] = Toxicity in nude mouse xenografted with human SW1990 cells assessed as heart damage at 30 mg/kg, ip administered for 28 days by H and E staining based fluorescence microscopic analysis; format: organism-based; conditions: in vivo, 672 h, time 28 day
Mus musculus [23] = test: Inhibition of BRD4 expression in nude mouse xenografted with human SW1900 cells at 30 mg/kg, ip administered for 28 days by Western blot analysis; format: functional, organism-based; conditions: time 28.0 day
SW1990 [24] = test: Induction of apoptosis in human SW1990 cells assessed as necrotic cells at 1 uM measured after 4 days by Annexin V-FITC and propidium iodide staining based flow cytometry (reference value: 2.45%); format: functional; conditions: time 4 day
SW1990 [25] = test: Induction of apoptosis in human SW1990 cells assessed as necrotic cells at 2 uM measured after 4 days by Annexin V-FITC and propidium iodide staining based flow cytometry (reference value: 2.45%); format: functional; conditions: time 4 day
Mus musculus [26] = test: Inhibition of CDK6 expression in nude mouse xenografted with human SW1990 cells at 30 mg/kg, ip measured after 4 days by Western blot analysis; format: functional, organism-based; conditions: time 4.0 day
Mus musculus [27] = test: Inhibition of CDC25B expression in nude mouse xenografted with human SW1990 cells at 30 mg/kg, ip measured after 4 days by Western blot analysis; format: functional, organism-based; conditions: time 4.0 day
SW1990 [28] = test: Induction of DNA damage in human SW1990 cells assessed as increase in tail DNA at 1 to 2 uM incubated for 4 days by comet assay; format: functional, cell-based; conditions: dose 1-2 µM, time 4.0 day
SW1990 [29] = test: Induction of DNA damage in human SW1990 cells assessed as increase in gammaH2AX expression at 1 to 2 uM incubated for 4 days by DAPI staining based laser confocal microscopic analysis; format: functional, cell-based; conditions: dose 1-2 µM, time 4.0 day
Mus musculus [30] = test: Inhibition of homologous recombinant repair in nude mouse xenografted with human SW1990 cells assessed as reversal of olaparib-induced BRCA2 expression at 30 mg/kg, ip after 4 days by Western blot analysis; format: functional, organism-based; conditions: time 4.0 day
SW1990 [31] = test: Effect on CDC25A gene expression in human SW1990 cells at 1 to 2 uM by Q-PCR analysis; format: functional, cell-based; conditions: dose 1-2 µM
SW1990 [32] = test: Effect on CCND1 gene expression in human SW1990 cells at 1 to 2 uM by Q-PCR analysis; format: functional, cell-based; conditions: dose 1-2 µM
SW1990 [33] = test: Effect on Rad51 gene expression in human SW1990 cells at 1 to 2 uM by Q-PCR analysis; format: functional, cell-based; conditions: dose 1-2 µM
SW1990 [34] = test: Effect on TOPBP1 gene expression in human SW1990 cells at 1 to 2 uM by Q-PCR analysis; format: functional, cell-based; conditions: dose 1-2 µM
SW1990 [35] = test: Effect on MDC1 gene expression in human SW1990 cells at 1 to 2 uM by Q-PCR analysis; format: functional, cell-based; conditions: dose 1-2 µM
SW1990 [36] = test: Inhibition of E2F2 protein expression in human SW1990 cells at 1 to 2 uM measured after 4 days by Western blot analysis; format: functional, cell-based; conditions: dose 1-2 µM, time 4.0 day
SW1990 [37] = test: Inhibition of CDC25B protein expression in human SW1990 cells at 1 to 2 uM measured after 4 days by Western blot analysis; format: functional, cell-based; conditions: dose 1-2 µM, time 4.0 day
SW1990 [38] = test: Inhibition of CDK1 protein expression in human SW1990 cells at 1 to 2 uM measured after 4 days by Western blot analysis; format: functional, cell-based; conditions: dose 1-2 µM, time 4.0 day
Mus musculus [39] = test: Inhibition of homologous recombinant repair in nude mouse xenografted with human SW1990 cells assessed as reversal of olaparib-induced FOXO1 expression at 30 mg/kg, ip measured after 4 days by Western blot analysis; format: functional, organism-based; conditions: time 4.0 day

## Cc1sc2c(c1C)C(c1ccc(Cl)cc1)=N[C@@H](CC(=O)OC(C)(C)C)c1nnc(C)n1-2
[1]
  Activity: Non-Toxic
[2]
  Activity: Non-Toxic
SW1990 [3]
  Activity: 24.9%
SW1990 [4]
  Activity: Active
SW1990 [5]
  Activity: Active
SW1990 [6]
  Activity: Active
SW1990 [7]
  Activity: Active
SW1990 [8]
  Activity: Active
SW1990 [9]
  Activity: Active
SW1990 [10]
  Activity: Active

## O=C(c1cc(Cc2n[nH]c(=O)c3ccccc23)ccc1F)N1CCN(C(=O)C2CC2)CC1 [OLAPARIB]
[11]
  Activity: Non-Toxic
[12]
  Activity: Non-Toxic
Mus musculus [13]
  Activity: Active
Mus musculus [14]
  Activity: Active
SW1990 [15]
  Activity: Active
SW1990 [16]
  Activity: Active
SW1990 [17]
  Activity: Active
SW1990 [18]
  Activity: Active
Mus musculus [19]
  Activity: Active
Mus musculus [20]
  Activity: Active
SW1990 [21]
  Activity: Active

## Cc1noc(C)c1-c1ccc2c(c1)C(c1ccccc1)N(Cc1nc3c(C(N)=O)cccc3[nH]1)C(=O)N2C (centres undefined)
[22]
  Activity: Non-Toxic
Mus musculus [23]
  inhibition: Active
SW1990 [24]
  Activity: 3.62%
SW1990 [25]
  Activity: 3.52%
Mus musculus [26]
  inhibition: Active
Mus musculus [27]
  inhibition: Active
SW1990 [28]
  Activity: Active
SW1990 [29]
  Activity: Active
Mus musculus [30]
  inhibition: Active
SW1990 [31]
  Activity: Active
SW1990 [32]
  Activity: Active
SW1990 [33]
  Activity: Active
SW1990 [34]
  Activity: Active
SW1990 [35]
  Activity: Active
SW1990 [36]
  inhibition: Active
SW1990 [37]
  inhibition: Active
SW1990 [38]
  inhibition: Active
Mus musculus [39]
  inhibition: Active
